Drawing on US20230295140A1, “INHIBITORS OF VAP-1” (Acucela Inc., priority 2021, published 2023), this text covers IC50 for 19 compounds.

Molecules are shown by their SMILES.

What all share (format): biochemical
One assay addresses rhMAO-B (Homo sapiens (Human), UniProt P27338). Briefly: MAO-Glo assay, MAO-B inhibition. How it is done:
(§1) The capability of compounds described herein to inhibit MAO was determined using a modified Promega MAO-Glo™ assay kit. The substrate ((4S)-4,5-dihydro-2-(6-hydroxybenzothiazolyl)-4-thiazolecarboxylic acid) was converted by MAO to produce methyl ester luciferin. The luciferin was then converted by luciferase to produce oxyluciferin and light. The light was measured using a luminescence setting on the plate reader. A standard curve was prepared by serially diluting luciferin in reaction buffer. The standard kit reaction buffer was used—100 mM HEPES (pH 7.5), 5% glycerol. The substrate was dispensed into the wells so that the final concentration for MAO-A inhibition assay would be 10 μM and MAO-B inhibition assay would be […]. Inhibitors were diluted in DMSO to 4× and distributed to the appropriate wells. Clorgyline and Deprenyl served as positive controls. rhMAO-A and rhMAO-B were purchased from Sigma. MAO-A or MAO-B was added to the appropriate wells. The plate was incubated for 1 hour, at room temperature with gentle shaking (90 rpm). The detection agent was added at equal volume (48 μL detection agent to 48 μL reaction). The plate was incubated for 20 minutes, at room temperature with gentle shaking (90 rpm). The plate luminescence was read. Data processing was performed using Prism software.
(§2) The capability of compounds described herein to inhibit MAO was determined using a modified Promega MAO-Glo™ assay. Test compounds, substrate and enzyme were incubated per manufacturer instructions for 1 hour, at room temperature with gentle shaking (90 rpm) before addition of detection agent. The detection agent was added at equal volume (48 μL detection agent to 48 μL reaction). The plate was incubated for 20 minutes, at room temperature with gentle shaking (90 rpm). The plate luminescence was read. Data processing was performed using Prism software.

A further assay has as its target rhVAP-1 (Homo sapiens (Human), UniProt Q16853). The assay can be described thus: VAP-1 fluorometric assay (Amplex Red/HRP, benzylamine substrate). The following applies: class symbols, ranges defined in μM. How it is done: The capability of compounds described herein to inhibit the enzymatic activity of vascular adhesion protein-1 (VAP-1) was determined by fluorometric assay. The assay procedure provided by R&D Systems was modified slightly for use as an inhibitor screening assay. The assay measured the H2O2 generated from the oxidative deamination of benzylamine by rhVAP-1 by converting Amplex® Red to the fluorescent product, resorufin, via horseradish peroxidase (HRP) and H2O2. Reaction buffer was 10 mM NaHCO3, pH 7.4. A standard curve was prepared by serially diluting H2O2 in reaction buffer. A 10 μM solution of resorufin was prepared in reaction buffer and was dispensed to 2 wells. These wells served as positive control for maximum fluorescence. Reaction buffer was added to the individual wells so that the final volume in each well was 100 μL. Amplex Red was diluted to 1 mM in reaction buffer. A 10 U stock of HRP was prepared in reaction buffer. A reaction cocktail was prepared by mixing equal parts 1 mM Amplex Red with 10 U HRP with 3 parts reaction buffers. The reaction cocktail was added to the appropriate wells, so that that final concentration in the well was 0.05 mM Amplex Red and 0.5 U HRP. A 200 μM solution of benzylamine was prepared in reaction buffer. Benzylamine was added to the appropriate wells so that the final concentration was 50 μM. Inhibitors were diluted in DMSO to 20× and distributed to the appropriate wells. LJP-1207 served a positive control. rhVAP-1 was purchased from R&D Systems. The concentration used for each lot was determined so that the activity was equal to the first lot. Two wells were left blank as controls. The plate was incubated for 30 minutes at 37° C., protected from light under foil. The plate was read at 530/35 emission and 590/35 excitation. Data processing was performed using Excel and Prism software.
The capability of compounds described herein to inhibit the enzymatic activity of vascular adhesion protein-1 (VAP-1) was determined by fluorometric assay. The assay procedure provided by R&D Systems was modified slightly for use as an inhibitor screening assay. The assay measured the H2O2 generated from the oxidative deamination of benzylamine by rhVAP-1 by converting Amplex® Red to the fluorescent product, resorufin, via horseradish peroxidase (HRP) and H2O2. Amplex Red, HRP, Benzylamine, inhibitors (with DMSO as vehicle, 0.5% v/v) and rhVAP-1 were added to the wells. Assay was conducted in 10 mM NaHCO3, pH 7.4. A standard curve was prepared by serially diluting H2O2 in reaction buffer. The plate was incubated for 30 minutes at 37° C., protected from light under foil. The plate was read at 530/35 emission and 590/35 excitation. Data processing was performed using Prism software.

The next assay addresses rhMAO-A (Homo sapiens (Human), UniProt P21397). Briefly: MAO-Glo assay, MAO-A inhibition. How it is done:
as §1, §2

Where [1] appears, read: class symbols, ranges defined in μM.

Sequence of rhMAO-B (P27338 whole entry): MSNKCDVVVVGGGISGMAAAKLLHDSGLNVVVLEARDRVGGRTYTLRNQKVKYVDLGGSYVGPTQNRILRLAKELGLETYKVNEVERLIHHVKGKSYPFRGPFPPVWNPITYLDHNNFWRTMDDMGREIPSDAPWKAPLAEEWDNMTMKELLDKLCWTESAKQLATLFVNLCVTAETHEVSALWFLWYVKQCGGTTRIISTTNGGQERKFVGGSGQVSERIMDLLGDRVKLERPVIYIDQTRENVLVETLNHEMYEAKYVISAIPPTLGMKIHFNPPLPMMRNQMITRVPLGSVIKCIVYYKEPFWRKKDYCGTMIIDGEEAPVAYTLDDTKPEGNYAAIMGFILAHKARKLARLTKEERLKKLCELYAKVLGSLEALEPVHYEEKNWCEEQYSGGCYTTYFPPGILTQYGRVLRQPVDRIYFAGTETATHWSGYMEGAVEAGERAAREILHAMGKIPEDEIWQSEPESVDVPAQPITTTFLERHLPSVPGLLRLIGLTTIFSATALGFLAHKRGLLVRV
Sequence of rhVAP-1 (Q16853 whole entry): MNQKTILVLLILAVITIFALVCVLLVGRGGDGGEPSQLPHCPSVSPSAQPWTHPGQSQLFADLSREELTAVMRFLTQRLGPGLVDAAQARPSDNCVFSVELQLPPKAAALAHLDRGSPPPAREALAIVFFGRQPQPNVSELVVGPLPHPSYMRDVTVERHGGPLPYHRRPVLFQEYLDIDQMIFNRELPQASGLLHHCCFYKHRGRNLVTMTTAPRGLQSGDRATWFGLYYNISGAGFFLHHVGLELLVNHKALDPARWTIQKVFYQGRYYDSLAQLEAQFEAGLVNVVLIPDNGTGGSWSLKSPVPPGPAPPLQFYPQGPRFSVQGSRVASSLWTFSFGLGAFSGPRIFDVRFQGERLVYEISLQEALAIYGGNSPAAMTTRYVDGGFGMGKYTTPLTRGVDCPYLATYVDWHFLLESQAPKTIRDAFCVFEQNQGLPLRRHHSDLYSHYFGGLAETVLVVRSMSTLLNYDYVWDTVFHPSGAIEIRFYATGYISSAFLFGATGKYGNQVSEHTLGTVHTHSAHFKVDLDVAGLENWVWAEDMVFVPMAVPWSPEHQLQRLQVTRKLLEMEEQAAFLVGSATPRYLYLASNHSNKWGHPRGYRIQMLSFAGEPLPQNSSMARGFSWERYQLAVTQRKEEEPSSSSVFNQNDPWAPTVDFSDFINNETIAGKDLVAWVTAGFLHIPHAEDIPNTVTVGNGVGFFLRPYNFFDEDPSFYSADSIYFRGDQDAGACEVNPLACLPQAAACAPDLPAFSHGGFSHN
Sequence of rhMAO-A (P21397 whole entry): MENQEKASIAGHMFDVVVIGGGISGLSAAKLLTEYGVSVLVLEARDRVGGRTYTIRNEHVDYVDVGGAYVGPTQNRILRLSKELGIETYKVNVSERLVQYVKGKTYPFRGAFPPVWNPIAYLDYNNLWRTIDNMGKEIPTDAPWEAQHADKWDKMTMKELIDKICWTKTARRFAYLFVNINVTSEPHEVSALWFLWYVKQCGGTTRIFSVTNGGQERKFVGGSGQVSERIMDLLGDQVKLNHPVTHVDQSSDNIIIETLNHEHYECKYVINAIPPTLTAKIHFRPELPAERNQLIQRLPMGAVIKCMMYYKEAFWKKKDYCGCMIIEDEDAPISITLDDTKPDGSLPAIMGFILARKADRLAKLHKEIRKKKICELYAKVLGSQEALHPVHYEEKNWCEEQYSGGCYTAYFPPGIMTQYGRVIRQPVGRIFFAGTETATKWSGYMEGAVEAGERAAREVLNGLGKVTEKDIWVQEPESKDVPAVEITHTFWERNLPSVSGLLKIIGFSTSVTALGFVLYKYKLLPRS

One may read the IC50 as the concentration that gives 50% inhibition. Higher therefore signals weaker potency in that assay. For the compound `CC1(C)CCC(c2nc3ccc(OC/C(=C/F)CN)cc3o2)CC1` [Example 36, (E)-2-(((2-(4,4-dimethylcyclohexyl)benzo[d]oxazol-6-yl)oxy)methyl)-3-fluoroprop-2-en-1-amine 4-methylbenzenesulfonate], the figures for the IC50 against rhMAO-B (setting [1]), on rhVAP-1 and against rhMAO-A (setting [1]) were 0.1 to 1 µM, below 0.1 µM and 10 to 30 µM, respectively.
Taken in the same sequence, the figures for `NC/C(=C\F)COc1ccc2nc(C3CCCC3)oc2c1` [Example 37, (E)-2-(((2-cyclopentylbenzo[d]oxazol-6-yl)oxy)methyl)-3-fluoroprop-2-en-1-amine 4-methylbenzenesulfonate] were 0.1 to 1 µM, below 0.1 µM and 1 to 10 µM.
`CCCCc1nc2ccc(OCCC(=CF)CN)cc2o1` [Example 38, 4-((2-butylbenzo[d]oxazol-6-yl)oxy)-2-(fluoromethylene)butan-1-amine 4-methylbenzenesulfonate]: the IC50 against rhMAO-B (setting [1]) is below 0.1 µM; at rhVAP-1, below 0.1 µM; at rhMAO-A (setting [1]) it was 0.1 to 1 µM.
As for `CC(C)(C)Nc1nc2ccc(OC/C(=C/F)CN)cc2o1` [Example 39, (E)-6-((2-(aminomethyl)-3-fluoroallyl)oxy)-N-(tert-butyl)benzo[d]oxazol-2-amine 4-methylbenzenesulfonate], the IC50 on rhMAO-B (setting [1]) was 1 to 10 µM; at rhVAP-1, below 0.1 µM; against rhMAO-A (setting [1]) it was 10 to 30 µM.
The like results for `CCCCc1nc2ccc(C(=O)NC/C(=C/F)CN)cc2o1` [Example 40, (E)-N-(2-(aminomethyl)-3-fluoroallyl)-2-butylbenzo[d]oxazole-6-carboxamide 4-methylbenzenesulfonate] were, in that order, 10 to 30 µM, 0.1 to 1 µM and 10 to 30 µM.
The like results for `NC/C(=C\F)COc1ccc2nc(C3CCC(c4ccccc4)CC3)oc2c1` (stereo not drawn) [Example 41, (E)-3-fluoro-2-(((2-(4-phenylcyclohexyl)benzo[d]oxazol-6-yl)oxy)methyl)prop-2-en-1-amine 4-methylbenzenesulfonate] were, in that order, 0.1 to 1 µM, below 0.1 µM and 10 to 30 µM.
Take `CCCC(C)c1nc2ccc(OC/C(=C/F)CN)cc2o1` (stereo not drawn) [Example 43, (E)-3-fluoro-2-(((2-(pentan-2-yl)benzo[d]oxazol-6-yl)oxy)methyl)prop-2-en-1-amine 4-methylbenzenesulfonate]: the IC50 on rhMAO-B (setting [1]) is 0.1 to 1 µM; at rhVAP-1, below 0.1 µM; at rhMAO-A (setting [1]) it was 10 to 30 µM.
`CCCCc1nc2ccc(NC/C(=C\F)CN)cc2o1` [Example 44, (Z)—N1-(2-butylbenzo[d]oxazol-6-yl)-2-(fluoromethylene)propane-1,3-diamine 4-methylbenzenesulfonate]: the results for the IC50 on rhMAO-B (setting [1]), against rhVAP-1 and at rhMAO-A (setting [1]) were 0.1 to 1 µM, below 0.1 µM and 10 to 30 µM, respectively.
Taken in the same sequence, the figures for `NC/C(=C\F)COc1ccc2nc(NCCc3ccccc3)oc2c1` [Example 45, (E)-6-((2-(aminomethyl)-3-fluoroallyl)oxy)-N-phenethylbenzo[d]oxazol-2-amine 4-methylbenzenesulfonate] were 0.1 to 1 µM, below 0.1 µM and 10 to 30 µM.
For the compound `CCCN(C)c1nc2ccc(OC/C(=C/F)CN)cc2o1` [Example 46, (E)-6-((2-(aminomethyl)-3-fluoroallyl)oxy)-N-methyl-N-propylbenzo[d]oxazol-2-amine 4-methylbenzenesulfonate], the results for the IC50 on rhMAO-B (setting [1]), at rhVAP-1 and at rhMAO-A (setting [1]) were 1 to 10 µM, below 0.1 µM and 1 to 10 µM, respectively.
In the case of `NC/C(=C\F)COc1ccc2nc(NCCO)oc2c1` [Example 47, (E)-2-((6-((2-(aminomethyl)-3-fluoroallyl)oxy)benzo[d]oxazol-2-yl)amino)ethan-1-ol 4-methylbenzenesulfonate], the IC50 on rhMAO-B (setting [1]) was 10 to 30 µM; at rhVAP-1 it was below 0.1 µM; against rhMAO-A (setting [1]), 10 to 30 µM.
As for `CC(C)(Nc1nc2ccc(OC/C(=C/F)CN)cc2o1)c1ccccc1` [Example 48, (E)-6-((2-(aminomethyl)-3-fluoroallyl)oxy)-N-(2-phenylpropan-2-yl)benzo[d]oxazol-2-amine 4-methylbenzenesulfonate], the IC50 at rhMAO-B (setting [1]) is 10 to 30 µM; at rhVAP-1, below 0.1 µM; at rhMAO-A (setting [1]), 10 to 30 µM.
In the case of `CN(Cc1ccccc1)c1nc2ccc(OC/C(=C/F)CN)cc2o1` [Example 49, (E)-6-((2-(aminomethyl)-3-fluoroallyl)oxy)-N-benzyl-N-methylbenzo[d]oxazol-2-amine 4-methylbenzenesulfonate], the IC50 on rhMAO-B (setting [1]) is 0.1 to 1 µM; on rhVAP-1, below 0.1 µM; at rhMAO-A (setting [1]), 10 to 30 µM.
Taken in the same sequence, the figures for `CC(C)(C)c1nc2ccc(OC/C(=C/F)CN)cc2o1` [Example 50, (E)-2-(((2-(tert-butyl)benzo[d]oxazol-6-yl)oxy)methyl)-3-fluoroprop-2-en-1-amine 4-methylbenzenesulfonate] were 1 to 10 µM, below 0.1 µM and 10 to 30 µM.
With `CC(C)(C)CCCc1nc2ccc(OC/C(=C/F)CN)cc2o1` [Example 51, (E)-2-(((2-(4,4-dimethylpentyl)benzo[d]oxazol-6-yl)oxy)methyl)-3-fluoroprop-2-en-1-amine 4-methylbenzenesulfonate], the IC50 at rhMAO-B (setting [1]) is 0.1 to 1 µM; at rhVAP-1, below 0.1 µM; on rhMAO-A (setting [1]), 1 to 10 µM.
On to `CNC(=O)CN(Cc1ccccc1)c1nc2ccc(OC/C(=C/F)CN)cc2o1` [Example 53, (E)-2-((6-((2-(aminomethyl)-3-fluoroallyl)oxy)benzo[d]oxazol-2-yl)(benzyl)amino)-N-methylacetamide 4-methylbenzenesulfonate], for which the IC50 at rhMAO-B (bound printed in cell) was above 50 µM; against rhVAP-1, below 0.1 µM; at rhMAO-A (bound printed in cell) it was above 50 µM.
On to `NC/C(=C\F)COc1ccc2nc(C34CC5CC(CC(C5)C3)C4)oc2c1` [Example 54, (E)-2-(((2-((3r,5r,7r)-adamantan-1-yl)benzo[d]oxazol-6-yl)oxy)methyl)-3-fluoroprop-2-en-1-amine 4-methylbenzenesulfonate], for which the results for the IC50 at rhMAO-B (setting [1]), against rhVAP-1 and against rhMAO-A (setting [1]) were 1 to 10 µM, below 0.1 µM and 1 to 10 µM, respectively.
Consider `Cc1ccc(CNc2nc3ccc(OC/C(=C/F)CN)cc3o2)cn1` [Example 55, (E)-6-((2-(aminomethyl)-3-fluoroallyl)oxy)-N-((6-methylpyridin-3-yl)methyl)benzo[d]oxazol-2-amine 4-methylbenzenesulfonate], for which the IC50 against rhMAO-B (setting [1]) was 1 to 10 µM; against rhVAP-1, below 0.1 µM; on rhMAO-A (bound printed in cell), above 35 µM.
As for `CNC(=O)C(Cc1ccccc1)Nc1nc2ccc(OC/C(=C\F)CN)cc2o1` (stereo not drawn) [Example 56, (Z)-2-((6-((2-(aminomethyl)-3-fluoroallyl)oxy)benzo[d]oxazol-2-yl)amino)-N-methyl-3-phenylpropanamide 4-methylbenzenesulfonate], the IC50 against rhMAO-B (setting [1]) is 10 to 30 µM; on rhVAP-1, below 0.1 µM; against rhMAO-A (bound printed in cell) it was above 50 µM.
